According to patent US5773438A, “Synthetic matrix metalloprotease inhibitors and use thereof” (Glycomed Incorporated, priority 1994, dated 1998):
pKi: −log10 of the molar value. “Also recorded” adds a separate entry of the source.

What was measured:
common carotid artery = assay: anti-restenotic assay, balloon catheter injury of common carotid artery; format: in vivo, Male Sprague-Dawley rats
Protocol: Male Sprague-Dawley rats (3-3.5 months old) were subject to balloon catheter injury of the common carotid artery (Clowes et al. Lab. Invest. (1983) 49:208-215). […] Rats were sacrificed at 4 days after injury. They were injected with 25 mg/kg BrdU subcutaneously at 17, 9 and 1 hours before sacrifice to label replicating vascular smooth muscle cells. A catheter was inserted into the aorta, and the carotids were fixed by perfusion with 4% paraformaldehyde at physiologic pressure. After carefully dissecting out the common carotid, the vessels were embedded in paraffin, cross-sectioned and stained with anti-BrdU antibody and hematoxylin, and an index of medical smooth muscle cell replication was obtained by expressing the % labelled SMCs ([…] et al., J. Clin. Invest. (1992) 90:2044-2049). After fixation, the common carotids were pinned out with the intimal surface facing upwards, and cells present on the intimal surface were stained with an antibody to histone proteins. […] The surface cells were counted and the number of cells per unit area was determined. […] The animals were injected with BrdU before sacrifice to label replicating cells in the media and intima. By 10 days after injury, the normal vessel forms a thickened neointima; smooth muscle migration in to the intima and subsequent proliferation contribute to this thickening. Cross-sections of the vessel were cut and stained with anti-BrdU and hematoxylin. Intimal cross-sectional areas were measured using a computer digitizing system. […] All data are presented as mean+SEM, and the data were analyzed by student's test.

[1] = test system: PdiBu-Induced Epidermal Hyperplasia; assay: PdiBu-induced epidermal hyperplasia mouse model (psoriasis); format: in vivo, hairless mice
Protocol: The phorbol ester, PdiBu (20 nmol in 20 μl if acetone) was applied to both ears of hairless mice (h/h) (approximately 1 cm^2 each). The test compounds (in total volume of 20 μl) were then applied to the right ear immediately (15 to 30 min) following PdiBu. The left ear of each animal received an equivalent amount (20 μl) of vehicle. Test compounds (and vehicle) were reapplied at 6 and 18 hours following PdiBu. Treatment times were staggered to allow exact time intervals to be obtained. At 30 hours after PdiBu, animals were anesthetized, and ear thickness values were obtained using a microcaliper. The weights of punch biopsies (6mm) were then obtained. Histology was performed on selected samples taken at 30 hours.
Left ear in each animal served as vehicle-treated controls (PdiBu+ETOH). Thus, the controls for this series include: 1) Untreated controls; 2) PdiBu plus vehicle alone (included for each mouse tested); 3) PdiBu plus AHA; 4) PdiBu plus Lidex® as a positive control.

Stromelysin = Stromelysin (Homo sapiens, UniProt P08254); assay: inhibition of stromelysin (Table 2); format: biochemical; conditions: read-out: Strom inhibitory activity
Sequence of Stromelysin (P08254 100-477): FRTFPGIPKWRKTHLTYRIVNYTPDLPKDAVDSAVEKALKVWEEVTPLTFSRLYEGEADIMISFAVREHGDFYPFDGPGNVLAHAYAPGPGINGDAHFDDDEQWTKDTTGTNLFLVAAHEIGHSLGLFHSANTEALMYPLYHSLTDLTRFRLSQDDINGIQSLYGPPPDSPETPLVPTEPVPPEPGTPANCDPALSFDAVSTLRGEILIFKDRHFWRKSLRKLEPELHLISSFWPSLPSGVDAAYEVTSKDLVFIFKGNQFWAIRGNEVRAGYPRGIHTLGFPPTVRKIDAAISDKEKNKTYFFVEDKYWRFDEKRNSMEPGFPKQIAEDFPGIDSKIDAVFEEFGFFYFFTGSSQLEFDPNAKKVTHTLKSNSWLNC
Protocol: Specifically, assay of inhibition activity can be conducted as follows. […] Assays for inhibition of human stromelysin are conducted as described by Teahan, J., et al., Biochemistry (1989) 20:8497-8501.
Assay of inhibition activity can be conducted using a fluorogenic substrate developed by Knight et al., FEBS Letters (1992) 296:263. This method uses a fluorometer to determine the rate of substrate hydrolysis in a 96 well plate format. Reaction rates are determined at several substrate concentrations, and multiple inhibitor levels. The data are analyzed by Lineweaver-Burk, Dixon and Henderson plot analyses (Enzyme Kinetics (1975) Irwin Segal (John Wiley & Sons, Inc., publishers), and as described by Henderson, Biochem J. (1972) 127:321). The substrate levels range from 10-30μM. […] Inhibitors may be assayed against purified 72 kD gelatinase, 92 kD gelatinase, neutrophil collagenase, stromelysin or other proteases as appropriate. The enzymes are activated at 37° C. with APMA (4-aminophenylmercuric acetate), and the assays are carried out at room temperature.

corneal vessels = assay: inhibition of angiogenesis, rat cornea pellet implant (Walker 256 extract); format: in vivo; conditions: 10 mg/mL in 55% DMSO, infused into vena cava 0.8 mL/24 hr, six days
Protocol: A crude extract (30 mg/mL protein) of Walker 256 carcinoma, a rat malignant tumor, was incorporated into Hydron, a slow release polymer, in 1.5 mm diameter pellets. Pellets were implanted in the stroma of the corneas of anesthetized albino rats. […] Controls received only the DMSO solution. After six days, the animals were re-anesthetized and perfused intra-arterially with India ink in order to visualize the corneal vessels. The eyes were then enucleated and fixed in 5% formalin. Control eyes which received only the DMSO solution show massive vessel growth toward the pellet from the limbus.

[2] = test system: protease activity of chronic wound fluid; assay: Azocoll assay of protease activity in chronic wound fluid; format: biochemical, human
Protocol: Fluids were collected from 3 types of human wounds termed closed spontaneously healing wounds, open slowly healing wounds, and open chronic wounds. In the first category were fluids collected from the chest wall of women following mastectomy surgery. Fluids from non-infected wounds that were left open for valid surgical reasons were considered open slowly healing wounds. An occlusive dressing was placed over the wound bed, and fluids were collected after 2-6 hours of occlusion. Finally, fluids were also collected from chronic open wounds by covering the wounds with occlusive dressings. Wounds were considered to be chronic if they were not clinically infected and had been open and not healing for more than 4 weeks.
The various wound fluids were assayed for matrix metalloproteinase activity using the Azocoll assay essentially as described by Chavira, et al., Analytic Biochemistry (1984), 136:446.
The fluids were centrifuged, and the supernatants filtered using a 0.45μ sterile Gelman filter. The filtrates were stored frozen at -80° C. until tested for protease activity.
The effects of four inhibitors on the protease activity present in wound fluids were determined. The inhibitors were: compounds
Stock solutions of the four inhibitors were all prepared at a concentration of 800 μg/ml. Due to different solubility properties of the inhibitors, different techniques were utilized. […] S1209 was dissolved in 1% DMSO then dissolved in 10 mM citrate, pH 5.5, containing 0.05% methyl cellulose. 39A was dissolved in propylene glycol (to give a final concentration of 2.4%) then dissolved in 1 mM CaCl2, 50 mM Tris-Cl, pH 7.8. 21A was dissolved in propylene glycol (2.4%) methyl cellulose (0.05%) and 10 mM citrate, pH 8.
The protease substrate, Azocoll, was obtained from Sigma Chemical Corporation and it is a substrate for collagenase/gelatinase-like metalloproteinase enzymes and general proteases. Clostridium histolyticum collagenase (the crude form of the enzyme) was from Worthington Biochemicals. General chemicals including TRIS buffer, DMSO, and CaCl2 were from Sigma Chemical Corporation.
Briefly, 900 μl of the Azocoll substrate suspension in buffer ([…] in 50 mM TRIS, pH 7.8, 1 mM CaCl2) was added to 1.5 ml microcentrifuge tubes then 50 μl of inhibitor (or buffer) and 50 μl of chronic wound fluid (or collagenase standard) were added to the reaction tube. The reaction tubes were placed at 37° C. in a shaker that inverted the tubes 30 times per minute. After 24 hours of incubation, the reaction tubes were centrifuges at 10,000 X g and the absorbance of the supernatant solution was measured at 520 nm with a Milton-Roy spectrophotometer. Proteolysis of Azocoll substrate generates soluble colored fragments from the insoluble Azocoll substrate. Wound fluid samples were incubated alone or with the inhibitors. Controls included incubation of the Azocoll substrate with the assay buffer to measure spontaneous degradation of the substrate. A standard curve for digestion of the Azocoll substrate was generated by incubation of the Azocoll with crude bacterial collagenase. Protease levels were expressed as net μg of collagenase equivalent per ml of chronic wound fluid. In the figures, certain of the wound fluids are referred to by an individual name.
For these experiments, due to the different solubility properties of the inhibitors, different techniques were utilized. […] S1209 was dissolved in 1% DMSO then dissolved in 10 mM citrate, pH 5.5, containing 0.05% methyl cellulose. 39A was dissolved in propylene glycol (to give a final concentration of 2.4%) then dissolved in 1 mM CaCl2, […] Tris-Cl, pH 7.8. 21A was dissolved in propylene glycol (2.4%) methyl cellulose (0.05%) and 10 mM citrate, pH 8.

Question: For `CNC(=O)[C@H](Cc1c[nH]c2ccccc12)NC(=O)[C@@H](CC(=O)NO)CC(C)C` [Compound 5A, N-[D,L-2-isobutyl-3-(N'-hydroxycarbonylamido)-propanoyl]-tryptophan methylamide], which “number of cells per unit area (intimal surface) versus CMC controls” value (common carotid artery; 4 day, 100 mg/kg i.p. daily) is on record?
Answer: significant decrease

Question: And the “cell migration into the intima” value (common carotid artery; 4 days after balloon injury)?
Answer: very large decrease

Question: And the “intimal cell replication rate versus controls” value (common carotid artery; 10 day)?
Answer: significantly higher

Question: And the lesion thickness (common carotid artery; 10 day)?
Answer: dramatically reduced

Question: What about the “intimal cross-sectional area versus CMC controls” value (common carotid artery; 10 day, daily administration) of the same compound?
Answer: significant decrease

Question: And the skin biopsy weight ([1]; PdiBu + 5A, 0.51 μmol/ear at 0.25 and 24 hours, 6 mm punch)?
Answer: 13.4 ± 1.5 mg

Question: What about the “skin biopsy weight, % of Control” value ([1]; PdiBu + 5A, 0.51 μmol/ear at 0.25 and 24 hours, of untreated control) of the same compound?
Answer: 146%

Question: What about the ear thickness ([1]; PdiBu + 5A, topical 0.51 μmol/ear) of the same compound?
Answer: 18.6 ± 1.6 inch × 10^-3

Question: What about the “ear thickness, % of Control” value ([1]; PdiBu + 5A, topical 0.51 μmol/ear, of untreated control) of the same compound?
Answer: 140%

Question: What about the PdiBu-induced epidermal hyperplasia ([1]; histology) of the same compound?
Answer: inhibited; also recorded: completely prevents; also recorded: decreased inflammation and epidermal hyperplasia

Question: What about the “PdiBu-induced extravasation of RBC's” value ([1]; histology) of the same compound?
Answer: inhibited

Question: And the “PdiBu-induced migration of inflammatory cells into dermis and epidermis” value ([1]; histology)?
Answer: inhibited

Question: And the epidermal morphology ([1]; histology)?
Answer: more normal appearing epidermal morphology

Question: What about the anti-inflammatory activity ([1]; in vivo model for psoriasis) of the same compound?
Answer: potent anti-inflammatory activity; also recorded: nearly comparable to that observed with Lidex®

Question: And the “effect on PdiBu-induced ear thickness” value ([1]; topical)?
Answer: significantly inhibited

Question: What about the “effect on PdiBu-induced increase in punch biopsy weight” value ([1]; topical) of the same compound?
Answer: significantly inhibited

Question: And the pKi (Stromelysin)?
Answer: 7.57

Question: What about the “corneal vessel growth versus controls” value (corneal vessels) of the same compound?
Answer: vessels much shorter and/or much finer than in the controls, barely filling with ink

Question: What about the “effective concentrations (order of magnitude)” value ([2]; FIG. 4) of the same compound?
Answer: μM

Question: What about the “inhibition of protease activity of a chronic wound fluid” value ([2]; FIG. 4) of the same compound?
Answer: effectively inhibited; also recorded: much more potent that EDTA

Question: What about the “inhibition of proteolytic degradation of Azocoll” value (“inhibition … of Azocoll” for short) ([2]; FIG. 4, 0.4 μg/ml (0.1 μM)) of the same compound?
Answer: approximately 92%

Question: What about the “inhibition … of Azocoll” value ([2]; FIG. 4, 4 μg/ml (1 μM)) of the same compound?
Answer: approximately 92%

Question: And the “inhibition … of Azocoll” value ([2]; FIG. 4, 4 μg/ml (10 μM))?
Answer: approximately 96%

Question: What about the “inhibition … of Azocoll” value ([2]; FIG. 4, 40 μg/ml (100 μM)) of the same compound?
Answer: approximately 96%

Question: And the “protease activity of chronic wound fluid after addition of inhibitor” value ([2]; FIG. 7, 800 μg/ml, untreated 284±52)?
Answer: 45±1 μg collagenase equivalents/ml of wound fluid

Question: And the “inhibition of protease activity of chronic wound fluid” value ([2]; FIG. 7, highest concentration (800 μg/ml))?
Answer: 84%

Question: What about the “protease activity of chronic wound fluid after addition of inhibitor, lower concentrations” value ([2]; FIG. 7, lower concentrations, untreated 284±52) of the same compound?
Answer: up to 90±6 μg collagenase equivalents/ml of wound fluid
